These results are taken from patent US12233041B2, “Disulfonate stilbenes for use in the treatment of proliferative diseases” (UNIVERSITÉ DE NANTES, priority 2018, dated 2025).

Data set [1] relates to DU145 prostate cancer cell line. Put plainly: Cytotoxicity, MTT assay. In kind it is cell-based. To be noted: DU-145 cells, 50 μM for 3 days. The method, then:
(§1) Prostate cancer cells DU145 (carcinoma) and fibroblast cells were cultured in […] (RPMI 1640 medium) supplemented with 10% fetal bovine serum (FBS) and 1% penicillin/streptomycin, and were grown at 37° C. with 5% CO2.
(§2) Tested molecules were dissolved and stored in DMSO at 20 mM concentration.
(§3) DU145 and fibroblast cells were seeded at 5×10^3 cells/well in 100 μl of medium in standard 96-well plates. The plates were incubated 24 h at 37° C. at an atmosphere of 5% CO2. Molecule solutions diluted in DMSO were serially diluted by RPMI 1640 medium from 60 μM to 0.02 μM and were added in 100 μl RPMI in quadruplicate.
After 72 h of incubation, 20 μL of 5 mg mL-1 MTT was added to each well according to the manufacturer's instructions. After 2 h of incubation at 37° C., the medium was removed, and 200 μl DMSO was added to each well to dissolve formazan crystals. The absorbance at 540 nm of each well was then monitored using an EnSpire multimode plate reader. Absorbance of each well was expressed as percentage of the control (wells with untreated cells), and the 50% inhibitory concentration (IC50) was determined. […] All data were expressed as the mean values±standard deviation. The IC50 values were calculated by linear regression analysis of the concentration-log response curves using the software GraphPad InStat 3.0. […]
(Tetrazolium dyes change colour on reduction, which living cells bring about.)

In another data set the test system is DU-145 cell line. Put plainly: Clonogenicity test, sensitizing effect with an antineoplastic drug. In kind it is cell-based. To be noted: DU-145, cisplatin alone; read-out: IC50 (clonogenic survival, cisplatin). The method, then:
Clonogenicity tests are carried out against several model cell lines derived from cancer including prostate cancer (DU-145). Cells are exposed to an anti-cancer agent targeting DNA (cisplatin or camptothecin). Damaged cells are counted and seeded in the presence or in the absence of B-2 in triplicate culture plates. After about two weeks of incubation at 37° C. the number of clones formed is counted. Each cell capable of repairing its lesions will then form a clone. After counting, the percentage of survival will be calculated relative to the control condition for which it is considered that there is 100% survival.
The main interest of RAD51 protein inhibitors is the sensitization of chemo-resistant or radio-resistant cancerous cell lines. Clonogenicity evaluation was carried out on the DU-145 cell line treated with cisplatin treatment in the presence or in the absence of disulfonate stilbene B-2 (RAD51 protein inhibitor).
DU-145 cell line was treated with camptothecin in the presence or in the absence of disulfonate stilbene B-2 (RAD51 protein inhibitor) and the clonogenic cell survival was determined.

Data set [2] relates to RAD51 foci in DU-145 cells. Put plainly: Rad51 foci quantification by immunofluorescence. The class given is cell-based. To be noted: DU-145, cisplatin 30 μM for 1 hour, fixed after 18 h. The method, then: DU-145 cells were grown on coverslips (Life Technologies) at a density of 5×10^3 cells per well in medium (RPMI) supplemented with 10% fetal bovine serum (Gibco-Invitrogen). Cells were treated with Cisplatin at 30 μM for 1 hour in presence or in absence of RAD51 inhibitor B-2 at 20 μM, and then the medium was replaced with molecule-free medium. After 18 h, cells were washed once in PBS for 5 min and fixed with ethanol absolute for 25 min.
The fixed cells were incubated for 1 h in the PBS buffer containing 1:1000 diluted anti-RAD51 antibody at room temperature. After three 5-min washes in PBS, slides were incubated with PBS solution containing the secondary antibody conjugated with AlexaFluor 555 ([…]) for 45 min in dark room. […] The images were recorded with NIS Element software (Version 3.6, Nikon, Tokyo, Japan). The quantification of RAD51 foci was processed with a program derived from Fiji-ImageJ software (NIH, Bethesda, Maryland, USA). […]
The treatment with Cisplatin alone induces a high level of RAD51 foci, whereas this level is decreased when the treatment is associated with B-2 20 μM. After the quantification of the number of RAD51 foci per cell, the number of cells containing more than 20 RAD51 foci was determined.

Another data set concerns the target T1, Rad51 (Homo sapiens, UniProt Q06609).
T1 sequence (Q06609 1-339): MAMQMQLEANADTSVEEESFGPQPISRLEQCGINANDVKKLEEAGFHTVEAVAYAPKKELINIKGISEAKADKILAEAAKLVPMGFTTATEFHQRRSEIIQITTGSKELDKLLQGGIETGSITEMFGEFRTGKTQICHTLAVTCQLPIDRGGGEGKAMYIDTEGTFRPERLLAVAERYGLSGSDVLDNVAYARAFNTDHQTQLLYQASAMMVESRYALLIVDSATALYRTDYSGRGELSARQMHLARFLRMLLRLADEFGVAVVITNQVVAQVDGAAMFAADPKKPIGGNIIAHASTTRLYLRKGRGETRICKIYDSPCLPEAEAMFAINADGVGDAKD
Description: DNA invasion by D-loop assay (strand exchange). To be noted: 0.5 μM Rad51, 1 μM 100-ssDNA, 37° C.; read-out: IC50 (RAD51 protein inhibition, D-loop formation). The class given is biochemical. On the procedure:
Labeled 100-ssDNA** (1 μM) was incubated with 0.5 μM Rad51 in presence or absence of the indicated amounts of the corresponding molecule in 10 μL of standard reaction buffer containing 20 mM Tris-HCl (pH 8), 1 mM ATP, 1 mM DTT, 1 mM CaCl2) at 37° C. for 20 min. The reaction was initiated by adding supercoiled pPB4.3 DNA (200 μM in bp). After incubation of 30 min at 37° C., the reactions were stopped and deproteinized by a stop solution (10 mM Tris-HCl pH 8, 10 mM MgCl2, 1% SDS, and 1 mg/mL proteinase K. The reaction mixtures were further incubated for 15 min at 37° C. After adding 5-fold loading dye (0.05% bromophenol blue, 8% glycerol, 1 mM EDTA), the reaction products were separated by electrophoresis on 1% agarose gel. The electrophoresis was carried out in 0.5×TAE buffer (20 mM Tris, 10 mM acetic acid and 1 mM EDTA) at 100 V for 2 h. The labeled products (100-ssDNA** and D-loop) were visualized and quantified by the detection of the IRD-700 dye with the 700 nm infrared fluorescent detection channel of an Odyssey Infrared Imager (LI-COR) (Normand, A. et al., Biochemical Pharmacology, October 2014, Vol. 91, No. 3, pp. 293-300).
The “D-loop” in vitro test allows the quantification of the formation of the strand exchange structure (D-loop) and thus the determination of the inhibitory power of a molecule during the strand exchange step of the recombinase mechanism. IC50 measuring the RAD51 protein inhibition in presence of compounds A-1 to A-5, […] and DIDS are then calculated.

For a further data set, the target named is T2, HsRad51 (Homo sapiens, UniProt Q06609).
T2 sequence (Q06609 1-339): T1 sequence (Q06609 1-339)
Description: RAD51 oligomerization by SDS-PAGE gel after crosslink. To be noted: 2.5 μM HsRad51, disuccinimidyl suberate crosslink, SDS-PAGE/Western blot; FIG. 1. The class given is biochemical. The method, then:
The reaction was performed at room temperature. 2.5 μm HsRad51 was incubated with the indicated concentrations of tested compounds for 10 min in a buffer containing 20 mm sodium phosphate, 50 mm NaCl, 1 mm MgCl 2, and 1 mm ATP. The cross-linking reactions were initiated by the addition of disuccinimidyl suberate (50 μm) and allowed to proceed for 30 min. Reactions were quenched by the addition of Tris-HCl (pH 7.5, final concentration: 50 mm) followed by subsequent incubations for 15 min. The products were then separated by 12% SDS polyacrylamide gel electrophoresis and detected by Western blot with mouse monoclonal anti-Rad51 antibody (NeoMarkers) and anti-mouse Alexa-Fluor 700-conjugated secondary antibody (Molecular Probes, Eugene, OR). The cross-linked dimer was quantified by an Odyssey Infrared Imaging System scanner (Li-Cor Biosciences) (Martinez, S. F. et al., “Targeting human Rad51 by specific DNA aptamers induces inhibition of homologous recombination”, Biochimie, December 2010, Vol. 92, No. 12, pp. 1832-1838).
The SDS-PAGE electrophoresis after crosslink maintains and immobilizes the RAD51 protein complexes and thus allows visualization of the degree of oligomerization (polymer formation) of the RAD51 protein. The effect of RAD51 protein inhibitors B-1, B-2, B-3, DIDS and X-4 on this key step of RAD51 protein recombinase activity has thus been evaluated. The results are presented on FIG. 1.
On the technique in general: In western blotting, separated proteins are transferred to a membrane and probed.

Another data set has as its system fibroblast cells. Put plainly: Cytotoxicity, MTT assay. The class given is cell-based. Conditions: 50 μM for 3 days, FIG. 7. The method, then: as §1, §2, §3
After 72 h of incubation, 20 μL of 5 mg mL-1 MTT was added to each well according to the manufacturer's instructions. After 2 h of incubation at 37° C., the medium was removed, and 200 μl DMSO was added to each well to dissolve formazan crystals. The absorbance at 540 nm of each well was then monitored using an EnSpire multimode plate reader. Absorbance of each well was expressed as percentage of the control (wells with untreated cells), and the 50% inhibitory concentration (IC50) was determined. […] All data were expressed as the mean values±standard deviation. The IC50 values were calculated by linear regression analysis of the concentration-log response curves using the software GraphPad InStat 3.0.

`O=c1c2ccccc2nc(/C=C/c2cccnc2)n1Cc1ccccc1` [BPQ, (E)-3-benzyl-2-(2-(pyridin-3-yl)vinyl)quinazolin-4(3H)-one] showed a mortality of cells in data set [1] of 90%. In data set [1] (FIG. 6), the cytotoxic effect result is “high cytotoxicity”.
As to `N.N.[Cl][Pt][Cl]` [Cisplatin, reference compound], the IC50 in the data set with DU-145 cell line was found to be 33 µM. For the same compound, the “level of RAD51 foci” value in data set [2] was “high level”.
As for `O=S(=O)(O)c1cc(N=C=S)ccc1C=Cc1ccc(N=C=S)cc1S(=O)(=O)O` [DIDS, 4,4′-Diisothiocyano-2,2′-stilbene disulfonic acid, reference compound], at Rad51, the IC50 was found to be 1 µM. Also, at HsRad51, the “oligomerization state of RAD51 protein” value is listed as “reduction”. Besides, the cytotoxic effect result in the data set on fibroblast cells is “has a cytotoxic effect”.

For orientation: IC50 means the point on the concentration scale where inhibition reaches its midpoint.
